Results as given in patent US8623862B2, “Derivatives of N-[(1H-pyrazol-1-yl)aryl]-1H-indole or 1H-indazole-3-carboxamide, preparation thereof and applications thereof in therapeutics” (Sanofi, priority 2011, dated 2014).
Structures can show the parent of a compound that is named as a salt.

Test system: platelet aggregation
Experiment: Inhibition of platelet aggregation in vitro (rat blood);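 for Inhibition of platelet aggregation in vitro (rat blood) in μM: aggregation induced by ADP added as 4 µL of a 250 µM solution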
Assay type: cell-based
Details: 0.1 h; rat platelet-rich plasma, ADP-induced aggregation, area under the curve of absorbance for 6 minutes; read-out: Inhibition of platelet aggregation in vitro (rat blood);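 for Inhibition of platelet aggregation in vitro (rat blood) in μM: aggregation induced by ADP added as 4 µL of a 250 µM solution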
Method: The measurements of platelet aggregation are performed at 37° C. in glass tubes (Chrono-Log—Kordia aggregometer).
Inhibition of Platelet Aggregation In Vitro (Rat Blood)
The blood is taken from male rats of the Sprague-Dawley strain, weighing 250-300 g.
The platelet-rich plasma (PRP) is obtained by centrifugation of the blood at 300 g for 5 minutes, and the measurements of platelet aggregation are performed as described above.
The results are calculated using the area under the curve of absorbance measured for 6 minutes, and expressed as percentage inhibition.

SMILES | IC50
CCCC(=O)c1cnn(-c2ccc(NC(=O)c3cn(CC(=O)O)c4ccc(Cl)cc34)cc2)c1C [Compound 3, (3-{[4-(4-butyryl-5-methyl-1H-pyrazol-1-yl)phenyl]carbamoyl}-5-chloro-1H-indol-1-yl)acetic acid] | 2.8 µM
CCCC(=O)c1cnn(-c2ccc(NC(=O)c3cn(CC(=O)O)c4cc(C)c(Cl)cc34)cc2)c1C [Compound 4, Sodium (3-{[4-(4-butyryl-5-methyl-1H-pyrazol-1-yl)phenyl]carbamoyl}-5-chloro-6-methyl-1H-indol-1-yl)acetate] | 3.3 µM

Same assay, conditions: Rattus norvegicus, Platelet, 0.1 h, read-out: Inhibition of platelet aggregation in vitro (rat blood) in μM

SMILES | IC50
CCCC(=O)c1cnn(-c2cnc(NC(=O)c3cn(CC(=O)N4CCN(C)CC4)c4ccc(Cl)cc34)cn2)c1C [Compound 27, N-[5-(4-Butyryl-5-methyl-1H-pyrazol-1-yl)pyrazin-2-yl]-5-chloro-1-[2-(4-methylpiperazin-1-yl)-2-oxoethyl]-1H-indole-3-carboxamide hydrochloride] | 0.3 µM
CCCC(=O)c1cnn(-c2ccc(NC(=O)c3cn(CC(=O)N4CCN(CCOC(F)(F)F)CC4)c4ccc(Cl)cc34)nn2)c1C [Compound 30, N-[6-(4-Butyryl-5-methyl-1H-pyrazol-1-yl)pyridazin-3-yl]-5-chloro-1-(2-oxo-2-{4-[2-(trifluoromethoxy)ethyl]piperazin-1-yl}ethyl)-1H-indole-3-carboxamide hydrochloride] | 0.1 µM

Same assay, conditions: rat platelet-rich plasma, ADP-induced aggregation, area under the curve of absorbance for 6 minutes; read-out: Inhibition of platelet aggregation in vitro (rat blood);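 for Inhibition of platelet aggregation in vitro (rat blood) in μM: aggregation induced by ADP added as 4 µL of a 250 µM solution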

SMILES | IC50
CCCC(=O)c1cnn(-c2ccc(NC(=O)c3cn(CC(=O)N4CCC(O)C4)c4ccc(Cl)cc34)nn2)c1C (racemic) [Compound 49] | 0.22 µM
CCCC(=O)c1cnn(-c2ccc(NC(=O)c3cn(CC(=O)N4CCN(CC5CCCO5)CC4)c4ccc(Cl)cc34)nn2)c1C (racemic) [Compound 63] | 0.12 µM
CCCC(=O)c1cnn(-c2ccc(NC(=O)c3cn(CC(=O)N4CCN5CCCCC5C4)c4ccc(Cl)cc34)nn2)c1C (racemic) [Compound 67] | 0.09 µM
CCCC(=O)c1cnn(-c2ccc(NC(=O)c3cn(CC(=O)O)c4cc(C)ccc34)cc2)c1C [Compound 8] | 63 µM
CCCC(=O)c1cnn(-c2ccc(NC(=O)c3cn(CC(=O)O)c4ccc(OC)cc34)cc2)c1C [Compound 12] | 17 µM
CCCC(=O)c1cnn(-c2ccc(NC(=O)c3cn(CC(=O)O)c4ccc(C(F)(F)F)cc34)cc2)c1C [Compound 13] | 4.6 µM
CCCC(=O)c1cnn(-c2ccc(NC(=O)c3cn(CC(=O)O)c4ccc(Br)cc34)cc2)c1C [Compound 14] | 1.9 µM
CCCC(=O)c1cnn(-c2ccc(NC(=O)c3cn(CC(=O)O)c4ccc(-c5ccccc5)cc34)cc2)c1C [Compound 15] | 25 µM
CCCC(=O)c1cnn(-c2ccc(NC(=O)c3cn(CC(=O)O)c4cc(C)c(C)cc34)cc2)c1C [Compound 16] | 4.6 µM
CCCC(=O)c1cnn(-c2ccc(NC(=O)c3cn(CC(=O)O)c4cc(Cl)c(Cl)cc34)cc2)c1C [Compound 17] | 7.3 µM
CCCC(=O)c1cnn(-c2ccc(NC(=O)c3cn(CC(=O)O)c4ccc(F)cc34)cc2)c1C [Compound 18] | 36 µM
CCCC(=O)c1cnn(-c2ccc(NC(=O)c3cn(CC(=O)O)c4cc(Br)c(C)cc34)cc2)c1C [Compound 19] | 42 µM
CCCC(=O)c1cnn(-c2ccc(NC(=O)c3cn(CC(=O)O)c4cc(C)c(Br)cc34)cc2)c1C [Compound 20] | 3.9 µM
CCCC(=O)c1cnn(-c2ccc(NC(=O)c3cn(CC(=O)O)c4cc(F)c(Cl)cc34)cc2)c1C [Compound 21] | 2.8 µM
CCCC(=O)c1cnn(-c2ccc(NC(=O)c3cn(CC(=O)O)c4ccc(N(C)C)cc34)cc2)c1C [Compound 22] | 1.2 µM
CCCC(=O)c1cnn(-c2ccc(NC(=O)c3cn(CC(=O)O)c4ccc(C#N)cc34)cc2)c1C [Compound 23] | 4.1 µM
CCCC(=O)c1cnn(-c2ccc(NC(=O)c3nn(CC(=O)O)c4ccc(C)cc34)cc2)c1C [Compound 24] | 37 µM
CCCC(=O)c1cnn(-c2ccc(NC(=O)c3cn(CC(=O)NC)c4ccc(Cl)cc34)nn2)c1C [Compound 32] | 0.19 µM
CCCC(=O)c1cnn(-c2ccc(NC(=O)c3cn(CC(=O)NCCO)c4ccc(Cl)cc34)nn2)c1C [Compound 33] | 0.08 µM
CCCC(=O)c1cnn(-c2ccc(NC(=O)c3cn(CC(=O)N4CCN(CC(=O)OCC)CC4)c4ccc(Cl)cc34)nn2)c1C [Compound 34] | 0.09 µM
CCCC(=O)c1cnn(-c2ccc(NC(=O)c3cn(CC(=O)N4CCOCC4)c4ccc(Cl)cc34)nn2)c1C [Compound 35] | 0.19 µM
CCCC(=O)c1cnn(-c2ccc(NC(=O)c3cn(CC(=O)N(C)C)c4ccc(Cl)cc34)nn2)c1C [Compound 36] | 0.11 µM
CCCC(=O)c1cnn(-c2ccc(NC(=O)c3cn(CC(=O)N(C)CCO)c4ccc(Cl)cc34)nn2)c1C [Compound 38] | 0.07 µM
CCCC(=O)c1cnn(-c2ccc(NC(=O)c3cn(CC(=O)N4CCN(CC(=O)NC(C)C)CC4)c4ccc(Cl)cc34)nn2)c1C [Compound 39] | 0.04 µM
CCCC(=O)c1cnn(-c2ccc(NC(=O)c3cn(CC(=O)N4CCCC4)c4ccc(Cl)cc34)nn2)c1C [Compound 40] | 0.1 µM
CCCC(=O)c1cnn(-c2ccc(NC(=O)c3cn(CC(=O)N4CCN(C(C)=O)CC4)c4ccc(Cl)cc34)nn2)c1C [Compound 42] | 0.15 µM
CCCC(=O)c1cnn(-c2ccc(NC(=O)c3cn(CC(=O)N4CC(C)NC(C)C4)c4ccc(Cl)cc34)nn2)c1C (stereo not shown) [Compound 43] | 0.12 µM

SMILES | IC50
CCCC(=O)c1cnn(-c2ccc(NC(=O)c3cn(CC(=O)N4CCN(C)C(=O)C4)c4ccc(Cl)cc34)nn2)c1C [Compound 44] | 0.16 µM
CCCC(=O)c1cnn(-c2ccc(NC(=O)c3cn(CC(=O)N4CCN(c5ccc(F)cc5)CC4)c4ccc(Cl)cc34)nn2)c1C [Compound 45] | 0.42 µM
CCCC(=O)c1cnn(-c2ccc(NC(=O)c3cn(CC(=O)N4CCN(CC(=O)N5CCCC5)CC4)c4ccc(Cl)cc34)nn2)c1C [Compound 46] | 0.04 µM
CCCC(=O)c1cnn(-c2ccc(NC(=O)c3cn(CC(=O)N4CCN(CC)CC4)c4ccc(Cl)cc34)nn2)c1C [Compound 47] | 0.06 µM
CCCC(=O)c1cnn(-c2ccc(NC(=O)c3cn(CC(=O)N4CCN(CCC)CC4)c4ccc(Cl)cc34)nn2)c1C [Compound 48] | 0.14 µM
CCCC(=O)c1cnn(-c2ccc(NC(=O)c3cn(CC(=O)N4CCC(CCO)CC4)c4ccc(Cl)cc34)nn2)c1C [Compound 50] | 0.05 µM
CCCC(=O)c1cnn(-c2ccc(NC(=O)c3cn(CC(=O)N4CCN(C(C)C)CC4)c4ccc(Cl)cc34)nn2)c1C [Compound 54] | 0.11 µM
CCCCN1CCN(C(=O)Cn2cc(C(=O)Nc3ccc(-n4ncc(C(=O)CCC)c4C)nn3)c3cc(Cl)ccc32)CC1 [Compound 55] | 0.16 µM
CCCC(=O)c1cnn(-c2ccc(NC(=O)c3cn(CC(=O)N4CCC(CO)CC4)c4ccc(Cl)cc34)nn2)c1C [Compound 56] | 0.3 µM
CCCC(=O)c1cnn(-c2ccc(NC(=O)c3cn(CC(=O)NCCn4cccc4)c4ccc(Cl)cc34)nn2)c1C [Compound 58] | 0.45 µM
CCCC(=O)c1cnn(-c2ccc(NC(=O)c3cn(CC(=O)N(C)CCOC)c4ccc(Cl)cc34)nn2)c1C [Compound 61] | 0.09 µM
CCCC(=O)c1cnn(-c2ccc(NC(=O)c3cn(CC(=O)N(C)Cc4ccco4)c4ccc(Cl)cc34)nn2)c1C [Compound 62] | 0.15 µM
CCCC(=O)c1cnn(-c2ccc(NC(=O)c3cn(CC(=O)N4CCNC(=O)C4)c4ccc(Cl)cc34)nn2)c1C [Compound 64] | 0.06 µM
CCCC(=O)c1cnn(-c2ccc(NC(=O)c3cn(CC(=O)N4CCC(N5CCOCC5)CC4)c4ccc(Cl)cc34)nn2)c1C [Compound 65] | 0.12 µM
CCCC(=O)c1cnn(-c2ccc(NC(=O)c3cn(CC(=O)N4CC(O)C4)c4ccc(Cl)cc34)nn2)c1C [Compound 66] | 0.22 µM
CCCC(=O)c1cnn(-c2ccc(NC(=O)c3cn(CC(=O)N4CCC(O)CC4)c4ccc(Cl)cc34)nn2)c1C [Compound 68] | 0.07 µM
CCCC(=O)c1cnn(-c2ccc(NC(=O)c3cn(CC(=O)N4CCN(C(=O)N(C)C)CC4)c4ccc(Cl)cc34)nn2)c1C [Compound 69] | 0.1 µM
CCCC(=O)c1cnn(-c2ccc(NC(=O)c3cn(CC(=O)N4CCn5cnnc5C4)c4ccc(Cl)cc34)nn2)c1C [Compound 70] | 0.11 µM
CCCC(=O)c1cnn(-c2ccc(NC(=O)c3cn(CC(=O)N4CCS(=O)(=O)CC4)c4ccc(Cl)cc34)nn2)c1C [Compound 71] | 0.12 µM
CCCC(=O)c1cnn(-c2ccc(NC(=O)c3cn(CC(=O)N(C)CCCO)c4ccc(Cl)cc34)nn2)c1C [Compound 72] | 0.06 µM
CCCC(=O)c1cnn(-c2ccc(NC(=O)c3cn(CC(=O)N4CCN(C5CCS(=O)(=O)C5)CC4)c4ccc(Cl)cc34)nn2)c1C (stereo not shown) [Compound 73] | 0.05 µM
CCCC(=O)c1cnn(-c2ccc(NC(=O)c3cn(CC(=O)NCc4n[nH]c(C)n4)c4ccc(Cl)cc34)nn2)c1C [Compound 74] | 0.12 µM
CCCC(=O)c1cnn(-c2ccc(NC(=O)c3cn(CC(=O)N4CCC(C(F)(F)F)C4)c4ccc(Cl)cc34)nn2)c1C (stereo not shown) [Compound 75] | 0.27 µM
CCCC(=O)c1cnn(-c2ccc(NC(=O)c3cn(CC(=O)N4Cc5ccncc5C4)c4ccc(Cl)cc34)nn2)c1C [Compound 76] | 0.06 µM
CCCC(=O)c1cnn(-c2ccc(NC(=O)c3cn(CC(=O)N4CCN(C)C(C)C4)c4ccc(Cl)cc34)nn2)c1C (stereo not shown) [Compound 77] | 0.09 µM
CCCC(=O)c1cnn(-c2ccc(NC(=O)c3cn(CC(=O)NC(C)c4nn[nH]n4)c4ccc(Cl)cc34)nn2)c1C (stereo not shown) [Compound 78] | 0.28 µM
CCCC(=O)c1cnn(-c2ccc(NC(=O)c3cn(CC(=O)N4CCN(C5CCC5)CC4)c4ccc(Cl)cc34)nn2)c1C [Compound 79] | 0.08 µM
